In general, Ki refers to a measure of affinity in units of concentration, obtained from inhibition or displacement. Low readings indicate higher affinity, high ones lower affinity. As a reminder, the Km is the concentration of substrate that gives half-maximal velocity.

These results are taken from ChEMBL document CHEMBL2074315, “Role of human organic anion transporter 4 in the transport of ochratoxin A” (Biochim Biophys Acta, 2002).

Assay type in all cases: functional, cell-based
Data set [1] has as its target T1, Solute carrier family 22 member 11 (Homo sapiens, UniProt Q9NSA0).
T1 sequence (Q9NSA0 whole entry): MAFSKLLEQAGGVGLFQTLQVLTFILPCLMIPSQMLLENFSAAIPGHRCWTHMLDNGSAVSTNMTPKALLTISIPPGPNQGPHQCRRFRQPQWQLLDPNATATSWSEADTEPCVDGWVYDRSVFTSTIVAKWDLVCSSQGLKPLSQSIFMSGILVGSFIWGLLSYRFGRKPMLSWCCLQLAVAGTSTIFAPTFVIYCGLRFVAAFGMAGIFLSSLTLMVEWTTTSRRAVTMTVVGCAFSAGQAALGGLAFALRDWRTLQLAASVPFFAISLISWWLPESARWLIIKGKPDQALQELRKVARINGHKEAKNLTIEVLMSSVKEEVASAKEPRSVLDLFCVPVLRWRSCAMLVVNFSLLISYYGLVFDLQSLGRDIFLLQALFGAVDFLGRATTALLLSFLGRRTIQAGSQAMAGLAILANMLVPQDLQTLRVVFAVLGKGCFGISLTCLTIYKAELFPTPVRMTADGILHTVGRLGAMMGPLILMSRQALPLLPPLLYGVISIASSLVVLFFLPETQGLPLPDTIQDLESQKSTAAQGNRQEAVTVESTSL
Description: TP_TRANSPORTER: inhibition of Ochratoxin A uptake in OAT4-expressing S2 cells.

The target in data set [2] is T1, Solute carrier family 22 member 11. The data set is described as follows: TP_TRANSPORTER: inhibition of Ochratoxin A uptake (OTA: 1 uM, Indomethacin: 200 uM) in OAT4-expressing S2 cells. As to conditions: mouse, s2, 200 µM.
Data set [3] deals with T2, OAT4 (SLC22A11, solute carrier family 22 member 11) (Homo sapiens, UniProt Q9NSA0).
T2 sequence (Q9NSA0 whole entry): T1 sequence (Q9NSA0 whole entry)
Description: TP_TRANSPORTER: uptake in OAT4-expressing S2 cells.

Data set [4] has as its target T1, Solute carrier family 22 member 11. The data set is described as follows: TP_TRANSPORTER: inhibition of Ochratoxin A uptake (OTA: 1 uM, PAH: 200 uM) in OAT4-expressing S2 cells. The conditions noted are these: mouse, s2, 200 µM.
Data set [5] has the same target. Description: TP_TRANSPORTER: inhibition of Ochratoxin A uptake (OTA: 1 uM, Aspartame: 200 uM) in OAT4-expressing S2 cells. As to conditions: s2, 200 µM.
Data set [6] shares this target. Description: TP_TRANSPORTER: inhibition of Ochratoxin A uptake (OTA: 1 uM, PCG: 200 uM) in OAT4-expressing S2 cells. As to conditions: s2, 200 µM.

In data set [1], `CCCCCCCC(=O)O` [OCTANOIC ACID] returned an inhibitory constant (Ki) of 236 µM. With `COc1ccc2c(c1)c(CC(=O)O)c(C)n2C(=O)c1ccc(Cl)cc1` [INDOMETHACIN], in data set [2], the Activity entry is “inhibitor [(at a rough estimate) 75 % of control]”. Turning to `C[C@@H]1Cc2c(Cl)cc(C(=O)N[C@@H](Cc3ccccc3)C(=O)O)c(O)c2C(=O)O1` [3R14S-OCHRATOXIN A], the Michaelis-Menten constant (Km) in data set [3] turned out to be 22.9 µM. With `CC1=C2C(=CO[C@H](C)[C@H]2C)C(O)=C(C(=O)O)C1=O` [CITRININ], the inhibition constant (Ki) in data set [1] stood at 366 µM. On the same count and under the same terms, to `CN1C(C(=O)Nc2ccccn2)=C(O)c2ccccc2S1(=O)=O` [PIROXICAM] belongs 108 µM. Consider `Nc1ccc(C(=O)NCC(=O)O)cc1` [AMINOHIPPURIC ACID], for which, in data set [4], the Activity result was “is not an inhibitor [-]”. For the compound `COC(=O)[C@H](Cc1ccccc1)NC(=O)[C@@H](N)CC(=O)O`, the Activity entry in data set [5] was “inhibitor [(at a rough estimate) 80 % of control]”. For `CC1(C)S[C@@H]2[C@H](NC(=O)Cc3ccccc3)C(=O)N2[C@H]1C(=O)O` [PENICILLIN G], the Activity result in data set [6] is “inhibitor [(at a rough estimate) 20 % of control]”.
